Reference: patent publication US7351739B2, “Bioactive compounds and methods of uses thereof” (Wellgen, Inc., priority 2004, dated 2008)

Tests used:
JB6 C141 cells = test: Anchorage-independent (soft agar) neoplastic cell transformation assay, EGF-exposed; format: cell-based, mouse
Description: (§1) Cell cultures: The JB6 mouse epidermal cell line Cl 41 or its stable AP-1 luciferase reporter plasmid stable transfectant was maintained with Eagles minimal essential medium (MEM), containing 5% fetal bovine serum (FBS), 2 mM L-glutamine and […] gentamicin or 50 IU/ml penicillin G and 50 μg/ml streptomycin, in an atmosphere of 95% air-5% CO2 at 37° C. Cells were seeded at a density of 5×10^4 cells/ml and cultured for 24 h. The cells were serum-starved in 0.1% FBS in MEM for 36 h to synchronize the cell cycle into G0 phase. The cells were treated with various concentrations of the test compound or distilled water (as a control) for 1 h, followed, by addition of MTS assay buffer for toxicity studies or 12-O-tetradecanoylphorbol-13-acetate (TPA) or epidermal growth factor (EGF at 10-20 ng/ml) to determine AP-1 activation. Some cells were used for cell transformation assays as described below. For human phenotype expression assays, human colon HCT116, human lung cancer HT460, human skin melanoma SK-MEL-28 or human ovarian SK-OV3 cells were cultured in their respective medium and harvested for soft agar assays.
(§2) Anchorage-independent transfornation assay: Inhibition of test compounds on TPA or EGF-induced cell transformation or human tumor phenotype expression was investigated under anchorage independent conditions. Samples of 1×10^4 cells were exposed to TPA (20 ng/ml) or EGF (20 ng/ml) with or without different concentrations of test compound inl ml 0.33% basal medium Eagle (BME) agar containing 10% FBS over 3.5 ml 0.5% BME agar medium containing 10% FBS. Gingerol was dissolved in 100% ethanol. Ethanol was used in the control group for comparison. The cultures were maintained in a 37° C., 5% CO2 incubator for 14-21 days and the cell colonies were scored by a computerized program integrated with a light microscope. Human tumor cells were treated in a similar manner but no EGF or TPA was needed.

[1] = test system: HCT116 colon cancer cells; test: Soft agar colony formation / human tumor phenotype expression; format: cell-based
Description: as §1, §2

HT460 lung cancer cells = test: as above; format: cell-based; settings: for Effect against human lung cancer cells, colony formation (figure statement, in words): concentration not given
Description: as §1, §2

[2] = test system: SK-MEL-28 skin cancer cells; test: as above; format: cell-based
Description: as §1, §2

[3] = test system: SK-OV-3 ovarian cancer cells; test: as above; format: cell-based
Description: as §1, §2

[4] = test system: skin cancer induced by UVA exposure in hairless mice; test: UVA-induced skin tumors in SKh-1 hairless mice, topical treatment; format: in vivo; settings: day 84, 30 micrograms per mouse on tumors, 5 days a week, day 21 to 53
Description: Twenty SKh-1 hairless mice were exposed to UVA to induce skin tumor formation. […] Rubescensin J was dissolved in DMSO and then brought up to volume in acetone. The two groups. of mice were treated with rubescensin J in acetone, and acetone alone, respectively. […] Five days a week, each mouse received a total of 30 micrograms applied directly on tumor(s) in a volume of 250 microliters. The compound was made fresh each day. Tumor numbers and sizes were monitored and recorded periodically.
Initial measurements were taken on day 1, 14 and 20, and the first treatment was applied on day 21. The experimental group of mice were treated with the compound 5 days a week until the compound was depleted on day 53. Measurement #1 through to #11 were made on day 14, 20, 24, 28, 32, 36, 39, 43, 51, 53, and 84. The numbers of tumor papillomas and the tumor volumes are expressed as a percentage of the number of papillomas and tumor volume on day 1.

[5] = test system: JB6 C141 mouse skin cells; test: MTS toxicity (cell proliferation) assay; format: cell-based; settings: 50 μM
Description: as §1, with “For human phenotype expression assays, human colon HCT116, human lung cancer HT460, human skin melanoma SK-MEL-28 or human ovarian SK-OV3 cells were cultured in their respective medium and harvested for soft agar assays.” left out
Cell Proliferation Assay (MTS Assay): Cell proliferation was analyzed using the CELLTITER 96® AQueous One Solution Cell Proliferation Assay (Promega, Madison, Wis.) following the instructions provided. […] Then the absorbance of a colored formazan product catalyzed by dehydrogenase enzymes in metabolically active cells was recorded at 492 nm with 690 nm as a background. Data were expressed as the percentage of absorbance of untreated control cells.

[6] = Homo sapiens, 25 μM, read-out: % Inhibition: HT 460 Lung Cancer

C=C1[C@@H](O)[C@@]23C(CC[C@@H]1[C@H]2O)[C@]12CCCC(C)(C)C1[C@H](O)[C@]3(O)OC2=O (stereo partly drawn) [Rabdoternin A]
Inhibition of neoplastic transformation in JB6 cell (in words) (JB6 C141 cells; 25 μM): completely inhibits
Prevention of neoplastic cell transformation, EGF, soft agar (figure statement, in words) (JB6 C141 cells; 25 μM): prevented neoplastic cell transformation
inhibition at 25 µM (JB6 C141 cells; Mus musculus, 25 μM): 100%
Inhibition of HCT116 colon cancer cell growth (in words) ([1]; 25 μM): completely inhibited
inhibition at 25 µM ([1]; Homo sapiens, HCT-116, 25 μM): 100%
Decreasing colony formation, human colon cancer cells (figure statement, in words) ([1]; concentration not given): particularly effective
Inhibition of HT460 lung cancer cell growth (in words) (HT460 lung cancer cells; 25 μM): moderately inhibited
inhibition at 25 µM (HT460 lung cancer cells; [6]): 10%
Effect against human lung cancer cells, colony formation (figure statement, in words) (HT460 lung cancer cells): moderate inhibitory effect
Inhibition of SK-MEL-28 skin cancer cell growth (in words) ([2]; 15 μM): completely inhibits
inhibition at 25 µM ([2]; Homo sapiens, SK-MEL-28, 25 μM): 100%
Effect against human skin melanoma cells, colony formation (figure statement, in words) ([2]; concentration not given): particularly effective

C=C1[C@@H](O)[C@@]23C(CC[C@@H]1[C@H]2O)[C@@]12C(=O)O[C@@]3(O)[C@@H](O)C1C(C)(C)CC[C@@H]2O (stereo partly drawn) [Rabdoternin B]
Inhibition of neoplastic transformation in JB6 cell (in words) (JB6 C141 cells; 75 μM): completely inhibits
Prevention of neoplastic cell transformation, EGF, soft agar (figure statement, in words) (JB6 C141 cells; 75 μM): prevented neoplastic cell transformation
inhibition at 75 µM (JB6 C141 cells; Mus musculus, 75 μM): 100%
Inhibition of HCT116 colon cancer cell growth (in words) ([1]; 50 μM): completely inhibited
inhibition at 50 µM ([1]; Homo sapiens, HCT-116, 50 μM): 100%
Decreasing colony formation, human colon cancer cells (figure statement, in words) ([1]; concentration not given): particularly effective
inhibition at 35 µM (HT460 lung cancer cells; Homo sapiens, 35 μM, read-out: % Inhibition: HT 460 Lung Cancer): 0%
inhibition at 35 µM ([2]; Homo sapiens, SK-MEL-28, 35 μM): 0%

C=C1[C@@H](OC(C)=O)[C@]23[C@H](O)[C@H]1CC[C@H]2[C@]12CCCC(C)(C)[C@H]1[C@H](OC(C)=O)[C@]3(O)OC2 [Rabdoternin C]
Prevention of neoplastic cell transformation, EGF, soft agar (FIG. 21) (JB6 C141 cells; 10 μM): 50%
Inhibition of neoplastic transformation in JB6 cell (in words) (JB6 C141 cells; 100 μM): completely inhibits
% Inhibition: Neoplastic Transformation in JB6 Cells (JB6 C141 cells; text b465: 50% at 10 μM): 50%
% Inhibition: HCT116 Colon Cancer Cells ([1]; 100 μM): 68%
Inhibition of HCT116 colon cancer cell growth (in words) ([1]; 100 μM): significantly inhibited
Decreasing colony formation, human colon cancer cells (figure statement, in words) ([1]; concentration not given): particularly effective
% Inhibition: HT 460 Lung Cancer (HT460 lung cancer cells; 100 μM): 14%
Inhibition of HT460 lung cancer cell growth (in words) (HT460 lung cancer cells; 100 μM): moderately inhibited
Effect against human lung cancer cells, colony formation (figure statement, in words) (HT460 lung cancer cells): some inhibitory effect
% Inhibition: SK-MEL-28 Skin Cancer ([2]; 100 μM): 5-10%
Inhibition of SK-MEL-28 skin cancer cell growth (in words) ([2]; 100 μM): moderately inhibited
Effect against human skin melanoma cells, colony formation (figure statement, in words) ([2]; concentration not given): some inhibitory effect

CC1(C)CC[C@H](O)[C@]23CO[C@@](O)([C@@H](O)C12)[C@]12C(=O)[C@@]4(CO4)[C@H](CCC31)[C@H]2O (stereo partly drawn) [Rubescensin J, 1α, 6β, 7β, 14β-tetrohydroxy-7α,20-epoxy-ent-kaur-16,17-exo-epoxide-15-one]
Prevention of neoplastic cell transformation, EGF, soft agar (figure statement, in words) (JB6 C141 cells; 25 μM): prevented neoplastic cell transformation
Inhibition of neoplastic transformation in JB6 cell (in words) (JB6 C141 cells; 40 μM): completely inhibits
% Inhibition: Neoplastic Transformation in JB6 Cells (JB6 C141 cells; 20-40 μM): 83-100 (20-40 μM) %
Decreasing colony formation, human colon cancer cells (figure statement, in words) ([1]; 10 μM): particularly effective
Inhibition of HCT116 colon cancer cell growth (in words) ([1]; 20 μM): completely inhibits
inhibition at 20 µM ([1]; Homo sapiens, HCT-116, 20 μM): 100%
Inhibition of HT460 lung cancer cell growth (in words) (HT460 lung cancer cells; 20 μM): moderately inhibits
inhibition at 20 µM (HT460 lung cancer cells; Homo sapiens, 20 μM, read-out: % Inhibition: HT 460 Lung Cancer): 20%
Effect against human lung cancer cells, colony formation (figure statement, in words) (HT460 lung cancer cells): moderate inhibitory effect
Effect against human skin melanoma cells, colony formation (figure statement, in words) ([2]; 20 μM): particularly effective
Inhibition of SK-MEL-28 skin cancer cell growth (in words) ([2]; 20 μM): significantly inhibits
inhibition at 20 µM ([2]; Homo sapiens, SK-MEL-28, 20 μM): 50%
Inhibition of SK-OV-3 ovarian cancer cell growth (in words) ([3]; 20 μM): moderately inhibits
inhibition at 20 µM ([3]; Homo sapiens, SK-OV-3, 20 μM): 15%
Effect against human ovarian cancer cells, colony formation (figure statement, in words) ([3]; concentration not given): moderate inhibitory effect
Number of tumor papillomas as percentage of the number on day 1 ([4]; untreated group about 90%): ~50%
Tumor volume as percentage of the volume on day 1 ([4]; untreated group about 120%): about 60%

CC1OC(OC2C(O)C(CO)OC(OCCc3ccc(OC(=O)/C=C/c4ccc(O)c(O)c4)c(O)c3)C2O)C(O)C(O)C1O (stereo not drawn) [Rubscendepside]
Toxicity evaluation with MTS assay (in words) [5]: no Rubscendepside toxicity
Prevention of neoplastic cell transformation, EGF, soft agar (figure statement, in words) (JB6 C141 cells; 25 μM): prevented neoplastic cell transformation
Inhibition of neoplastic transformation in JB6 cell (in words) (JB6 C141 cells; 50 μM): completely inhibits
% Inhibition: Neoplastic Transformation in JB6 Cells (JB6 C141 cells; 20-50 μM): 80-100 (20-50 μM) %
Inhibition of HCT116 colon cancer cell growth (in words) ([1]; 15 μM): significantly inhibits
inhibition at 15 µM ([1]; Homo sapiens, HCT-116, 15 μM): 60%
Decreasing colony formation, human colon cancer cells (figure statement, in words) ([1]; concentration not given): particularly effective
Inhibition of HT460 lung cancer cell growth (in words) (HT460 lung cancer cells; 25 μM): moderately inhibits
inhibition at 25 µM (HT460 lung cancer cells; [6]): 37%
Effect against human lung cancer cells, colony formation (figure statement, in words) (HT460 lung cancer cells): moderate inhibitory effect
Inhibition of SK-MEL-28 skin cancer cell growth (in words) ([2]; 25 μM): moderately inhibits
inhibition at 25 µM ([2]; Homo sapiens, SK-MEL-28, 25 μM): 36%
Effect against human skin melanoma cells, colony formation (figure statement, in words) ([2]; concentration not given): moderate inhibitory effect

Rubescensin M
Inhibition of neoplastic transformation in JB6 cell (in words) (JB6 C141 cells; 100 μM): almost completely inhibits
Prevention of neoplastic cell transformation, EGF, soft agar (figure statement, in words) (JB6 C141 cells; 100 μM): prevented neoplastic cell transformation
% Inhibition: Neoplastic Transformation in JB6 Cells (JB6 C141 cells; text b462: 100 μM): 90%
% Inhibition: HCT116 Colon Cancer Cells ([1]; 75 μM): 90%
Decreasing colony formation, human colon cancer cells (figure statement, in words) ([1]; concentration not given): particularly effective
% Inhibition: HT 460 Lung Cancer (HT460 lung cancer cells; 75 μM): 73%
Effect against human lung cancer cells, colony formation (figure statement, in words) (HT460 lung cancer cells): moderate inhibitory effect
% Inhibition: SK-MEL-28 Skin Cancer ([2]; 50 μM): 100%
Inhibition of SK-MEL-28 skin cancer cell growth (in words) ([2]; 50 μM): completely inhibited
Effect against human skin melanoma cells, colony formation (figure statement, in words) ([2]; concentration not given): particularly effective
